According to patent US10966911B2, “Melanin decomposition inhibitor” (KAO CORPORATION, priority 2016, dated 2021):

Assays:
LC3-II = experiment: Autophagy activity of epidermal keratinocytes (LC3-II accumulation with chloroquine diphosphate, Western blotting); format: cell-based, human; settings: chloroquine diphosphate 10 μM, 24 hours, FIG. 18
Procedure: Normal human neonatal foreskin-derived epidermal keratinocytes (Human Epidermal Keratinocytes, neonatal (HEKn) lightly; keratinocytes) were purchased from Thermo Fisher Scientific. […] The keratinocytes were cultured in a grow medium (Epilife) epidermal keratinocytes (Thermo Fisher Scientific) supplemented with a growth additive (Humedia-KG) (manufactured by Kurabo Industries Ltd.) at 37° C. in 5 vol % CO2 atmospheric conditions.
Keratinocytes were seeded in a 6-well plate at a density of 1.5×10^5 cells/well (2 mL/well). The following day, proguanil was added so as to obtain a final concentration of 0.3, 1, 3, 10 or 30 μM. Culture was performed at 37° C. in 5 vol % CO2 atmospheric conditions. As a control, the same amount of DMSO was added. […] The following day, Chloroquine diphosphate attached to LC3B Antibody Kit for Autophagy (Thermo Fisher Scientific) was added so as to obtain a final concentration of 10 μM. Culture was performed at 37° C. in 5 vol % CO2 atmospheric conditions for 24 hours. After completion of the culture, SDS-PAGE and western blotting were performed in accordance with the method as mentioned above. As a primary antibody, anti-LC3B (1:1000) attached to the kit mentioned above was used. […] Expression of β-actin as the internal standard was evaluated by using monoclonal antibody specific for β-actin (Sigma-Aldrich, 1:5000).

LC3-II and p62 proteins [1] = experiment: Autophagy markers LC3-II and p62 in epidermal cells (Western blotting); format: cell-based, human; settings: berberine 10, 30 or 60 μM, 24 hours, FIG. 7
Procedure: As a part of elucidation of the skin color darkening action of berberine, the effect on autophagy in epidermal cells was examined. Berberine was added in a medium for the epidermal cells seeded in a 6-well plate at a final concentration of 10, 30 or 60 μM and the epidermal cells were cultured for 24 hours. Protein was extracted and subjected to Western-blotting analysis to determine the expression levels of LC3-II and p62 proteins serving as markers for autophagy.
As a part of elucidation of skin color darkening action of phenformin and berberine, an effect of phenformin and berberine on melanosome decomposition in, epidermal cells was examined. The epidermal cells were isolated from a foreskin tissue obtained from a Skin Bank of the United States, National Disease Research Interchange (NDRI) in accordance with a predetermined method, and cultured. Melanosomes were prepared from MNT-1 cell strain in accordance with a predetermined method (Murase et al. (2013), J Invest Dermatol, 133: 2416-2424). A predetermined amount of melanosomes was added to epidermal cells and the cells were cultured for 24 hours. Melanosome prepared from MNT-1 cell strain cultured in an area of 35 cm^2 was added per well of the 6-well plate. […]

Pmel17 = experiment: Melanosome decomposition in epidermal cells that incorporated MNT-1 melanosomes (Pmel17 Western blotting); format: cell-based, human; settings: 24 hours, FIG. 8
Procedure: As a part of elucidation of skin color darkening action of phenformin and berberine, an effect of phenformin and berberine on melanosome decomposition in, epidermal cells was examined. The epidermal cells were isolated from a foreskin tissue obtained from a Skin Bank of the United States, National Disease Research Interchange (NDRI) in accordance with a predetermined method, and cultured. Melanosomes were prepared from MNT-1 cell strain in accordance with a predetermined method (Murase et al. (2013), J Invest Dermatol, 133: 2416-2424). A predetermined amount of melanosomes was added to epidermal cells and the cells were cultured for 24 hours. Melanosome prepared from MNT-1 cell strain cultured in an area of 35 cm^2 was added per well of the 6-well plate. After the cells were washed with PBS, the epidermal cells which had incorporated melanosome therein were added with phenformin at a final concentration of 100 or 200 μM, berberine at a final concentration of 10, 30 or 60 μM and a Goldenseal extract rich in berberine at a final concentration 0.2 or 0.5% (v/v), and the cells were cultured for a further 24 hours. Protein was extracted and subjected to Western-blotting analysis to determine the expression level of Pmel17, a major protein constituting melanosome.

human skin tissue [2] = experiment: Fontana-Masson staining of cultured human skin tissue (melanin deposition); format: cell-based
Procedure: (1) A normal human skin tissue obtained at the time of a surgical operation was purchased from a Skin Bank of the United States, National Disease Research Interchange (NDRI). The human skin tissue, from which subcutaneous fat was previously removed, was cut into pieces having a size of about 1 cm×about 1 cm by knife and cultured by using a 6-well plate at 37° C. under a 5% CO2 atmosphere. Advanced-DMEM medium containing 10% (v/v) Fetal Bovine Serum (FBS) (Life Technologies, respectively) was used for culture. (3) Next, the skin tissue cultured was subjected to Fontana-Masson staining to observe deposition of melanin. In the staining, Fontana-Masson Stain Kit manufactured by American […] Scientific, Inc. was used.

human skin tissue [3] = experiment: Skin color darkening in cultured human skin tissue (appearance observed and photographed); format: cell-based
Procedure: (§1) (1) A normal human skin tissue obtained at the time of a surgical operation was purchased from a Skin Bank of the United States, National Disease Research Interchange (NDRI). The human skin tissue, from which subcutaneous fat was previously removed, was cut into pieces having a size of about 1 cm×about 1 cm by knife and cultured by using a 6-well plate at 37° C. under a 5% CO2 atmosphere. Advanced-DMEM medium containing 10% (v/v) Fetal Bovine Serum (FBS) (Life Technologies, respectively) was used for culture.
(2) The human skin tissue prepared in accordance with the method described in the above (1) was allowed to stand still in the 6-well plate. Then, phenformin was added in the medium so as to have a final concentration of 300 μM and tissue culture was initiated. The medium replacement was performed every 2 to 3 days. Six days or eight days later, the appearance of the skin tissue was observed and photographed.
A human skin tissue prepared in accordance with the method of Example 1 (1) was allowed to stand still in a 6-well plate. Then, phenformin was added in a medium at a final concentration of 100, 200 or 300 μM and tissue culture was initiated. Four days later, the appearance of the skin tissue was observed and photographed.
Skin tissues prepared in accordance with the method of Example 1 (1) were allowed to stand still in 6-well plates. […]

AMPK = settings: Non-Patent Literature 2; cited from earlier work
LC3-II and p62 proteins [4] = experiment: Autophagy markers LC3-II and p62 in cultured human hair follicle (Western blotting); format: cell-based; settings: phenformin 200 μM, FIG. 11
Procedure: A human hair follicle was surgically isolated from a normal human scalp tissue ([…]), which was obtained at the time of surgical operation, and given by a USA dermatologist. The isolated human hair follicle was cultured at 37° C. under a 5% CO2 atmosphere in William E medium supplemented with 20 μg/mL insulin (Sigma-Aldrich), 40 ng/mL hydrocortisone (Sigma-Aldrich), 2 mM L-glutamine (Life Technologies) and a 1% (v/v) penicillin/streptomycin solution (Life Technologies) (all were final concentrations). The isolated human hair follicle was allowed to stand still in a 24-well plate and phenformin was added at a final concentration of 200 μM in the medium. Tissue culture was initiated. Medium replacement was performed Day 1 and Day 3 after the initiation of culture. Follicular tissue at Day 5 after the initiation of culture was embedded in OCT compound (TissueTek) and frozen. These follicular tissues were subjected to Fontana-Masson staining and deposition of melanin was observed.
From the human hair follicle cultured in accordance with the method of Example 8, protein was extracted and subjected to Western-blotting analysis. In this manner, expression levels of autophagy markers, i.e., LC3-II and p62 proteins, were analyzed.

[5] = tested on: AMPK (AMP-activated protein kinase); settings: human embryonic kidney cells (HEK 293 T cells); Non-Patent Literature 1; cited from earlier work
human hair follicle = experiment: Hair color darkening in cultured human hair follicle (Fontana-Masson staining); format: cell-based; settings: phenformin 200 μM, Day 5, FIG. 10
LC3-II and p62 proteins [6] = experiment: Western blotting of autophagy markers LC3-II and p62 in cultured human skin tissue; format: cell-based; settings: 4 days, phenformin at different concentrations, FIG. 3B
Procedure: as §1
Further, the skin tissue prepared in accordance with the method of Example 1 (1) was allowed to stand still in a 6-well plate and cultured in the absence or presence of phenformin at a different concentration for 4 days. Proteins were extracted from the skin tissues and subjected to Western-blotting analysis. In this manner, the expression levels of LC3-II and p62 proteins, which are localized in autophagosome membrane and finally decomposed by autophagy, were determined. A mouse anti-human LC3 antibody (Cosmo Bio) and rabbit anti-human p62 antibody (MBL International) were used as primary antibodies.

Pmel17 protein = experiment: Western blotting of Pmel17 protein in cultured human skin tissue; format: cell-based; settings: cultured 6 days with or without phenformin, FIG. 3A
Procedure: as §1
The skin tissue prepared in accordance with the method of Example 1 (1) was allowed to stand still in a 6-well plate and cultured in the presence or absence of phenformin for 6 days. Protein was extracted from the skin tissue and used for quantitative analysis of Pmel17 protein, which is a major protein constituting a melanosome, by Western-blotting. Using a mouse anti-human Pmel17 antibody (DAKO) as a primary antibody and a goat anti-mouse IgG antibody as a secondary antibody, signals were detected by using ECL prime reagent (GE Healthcare) and ODYSSEY Fc Imaging System (LICOR). Beta-actin protein as an internal standard was detected in the same manner.

## CCN(CC)CCCC(C)Nc1ccnc2cc(Cl)ccc12 (stereo not drawn) [Chloroquine diphosphate]
LC3-II
  accumulation of LC3-II: Accumulation of LC3-II was induced

## COc1ccc2cc3[n+](cc2c1OC)CCc1cc2c(cc1-3)OCO2 [berberine, Berberine]
LC3-II and p62 proteins [1]
  expression level of LC3-II protein: LC3-II and p62 proteins are accumulated in a berberine dose-dependent manner
  expression level of p62 protein: LC3-II and p62 proteins are accumulated in a berberine dose-dependent manner
Pmel17; berberine 10, 30 or 60 μM
  expression level of Pmel17: accumulation of Pmel17 protein in a dose-dependent manner was observed
Human skin tissue [2]; berberine 10 or 30 μM and 30 or 100 μM, FIGS. 5 and 6
  deposition of melanin on the epidermal layer (tissue staining): Deposition of melanin on the epidermal layer was confirmed
Human skin tissue [3]; berberine 10 or 30 μM (Caucasian) and 30 or 100 μM (African American), six or four days, FIGS. 5 and 6
  darkening of skin color: darkening of skin color was induced in a berberine dose-dependent manner
AMPK
  AMPK activation action: has an AMPK activation action

## N=C(N)NC(=N)NCCc1ccccc1 [phenformin, Phenformin]
LC3-II and p62 proteins [4]
  expression level of LC3-II protein: Accumulation of LC3-II and p62 proteins by addition of phenformin was observed
  expression level of p62 protein: Accumulation of LC3-II and p62 proteins by addition of phenformin was observed
[5]
  autophagy: activates autophagy through activation of AMPK
Pmel17; phenformin 100 or 200 μM
  expression level of Pmel17: accumulation of Pmel17 protein in a dose-dependent manner was observed
Human hair follicle
  hair color darkening: Apparent hair color darkening was induced
Human skin tissue [2]; phenformin 300 μM, skin tissue, FIGS. 2A, 2B
  accumulation of melanin in the epidermis: significant accumulation of melanin in the epidermis was observed
Human skin tissue [2]; phenformin 100, 200 or 300 μM, 4 days, data not shown
  melanin deposition: melanin deposition, which is correlated with a change in skin color, was confirmed
Human skin tissue [3]; phenformin 100, 200 or 300 μM, 4 days, FIG. 4
  skin color darkening (dose dependent): Recognizable darkening was observed in a dose-dependent manner
LC3-II and p62 proteins [6]
  expression level of LC3-II protein: accumulation on both markers was observed
  expression level of p62 protein: accumulation on both markers was observed
Pmel17 protein
  amount of Pmel17 protein: amount of Pmel17 protein is increased
